These results are taken from patent EP0550016A1, “Novel quinolone carboxylic acid derivatives and processes for preparing same” (KOREA RESEARCH INSTITUTE OF CHEMICAL TECHNOLOGY, priority 1991, dated 1993).

Holding throughout (assay): In vitro anti-bacterial activity test (MIC, two-fold dilution method) against the standard strains
Holding throughout (assay type): cell-based

Assay [1] relates to Streptococcus pyogenes 308 A. To be noted: Table 1 strain 1: Streptococcus pyogenes 308 A.
Assay [2] relates to Streptococcus pyogenes 77 A. Conditions: Table 1 strain 2: Streptococcus pyogenes 77 A; read-out: MIC.
The test system of assay [3] is Streptococcus faecium MD 8b. To be noted: Enterococcus faecium, MD8B; Table 1 strain 3: Streptococcus faecium MD 8b; read-out: MIC.
In assay [4] the test system is Staphylococcus aureus SG 511. To be noted: SG511; Table 1 strain 4: Staphylococcus aureus SG 511.
Assay [5] deals with Staphylococcus aureus 285. To be noted: Table 1 strain 5: Staphylococcus aureus 285; read-out: MIC.
The test system of assay [6] is Staphylococcus aureus 503. Conditions: Table 1 strain 6: Staphylococcus aureus 503; read-out: MIC.
Assay [7] deals with Escherichia coli DC 0. To be noted: DC0; Table 1 strain 7: Escherichia coli DC 0.
In assay [8] the test system is Escherichia coli DC 0. Conditions: DC0; Table 1 strain 8: Escherichia coli DC 0.
The subject of another assay is Escherichia coli DC 2. Conditions: DC2; Table 1 strain 9: Escherichia coli DC 2; read-out: MIC.
The next assay deals with Escherichia coli OTEM. To be noted: Table 1 strain 10: Escherichia coli OTEM.
For a further assay, the system named is Escherichia coli 1507 E. To be noted: Table 1 strain 11: Escherichia coli 1507 E.
The test system of assay [9] is Pseudomonas aeruginosa 9027. Conditions: Table 1 strain 12: Pseudomonas aeruginosa 9027.
In assay [10] the test system is Pseudomonas aeruginosa 1592 E. To be noted: Table 1 strain 13: Pseudomonas aeruginosa 1592 E.
The test system of assay [11] is Pseudomonas aeruginosa 1771. Conditions: Table 1 strain 14: Pseudomonas aeruginosa 1771.
The subject of assay [12] is Pseudomonas aeruginosa 1771 M. Conditions: Table 1 strain 15: Pseudomonas aeruginosa 1771 M.
The next assay has as its system Salmonella typhimurium. To be noted: Salmonella enterica; Table 1 strain 16: Salmonella typhimurium.
Assay [13] concerns Klebsiella aerogenes 1082 E. Conditions: Table 1 strain 17: Klebsiella aerogenes 1082 E.
For assay [14], the system named is Klebsiella aerogenes 1522 E. To be noted: Table 1 strain 18: Klebsiella aerogenes 1522 E.
Assay [15] concerns Enterobacter cloacae P 99. To be noted: P99; Table 1 strain 19: Enterobacter cloacae P 99.
Assay [16] has as its system Enterobacter cloacae 1321 E. Conditions: Table 1 strain 20: Enterobacter cloacae 1321 E.

≈ marks a conversion by molar mass, not a printed value.

For `NC1CC12CCCN(c1c(F)cc3c(=O)c(C(=O)O)cn(C4CC4)c3c1F)C2` (centres unmarked) [Example 16, 7-(1-amino-5-azaspiro[2,5]octane-5-yl)-1-cyclopropyl-6,8-difluoro-1,4-dihydro-4-oxoquinoline-3-carboxylic acid], the MIC in assay [1] was determined as 0.781 µg/mL (≈ 2.01 µM); in assay [2], 0.391 µg/mL (≈ 1 µM); in [3], 0.391 µg/mL (≈ 1 µM); in assay [4] it was 0.098 µg/mL (≈ 0.252 µM); in [5], 0.098 µg/mL (≈ 0.252 µM); in assay [6] it was 0.098 µg/mL (≈ 0.252 µM). The MIC in the assay with Escherichia coli DC 0 [7] was found to be 0.049 µg/mL (≈ 0.126 µM); in the assay with Escherichia coli DC 0 [8], 1.56 µg/mL (≈ 4.01 µM); with Escherichia coli DC 2 it was 0.195 µg/mL (≈ 0.501 µM); against Escherichia coli OTEM, 0.098 µg/mL (≈ 0.252 µM); in the assay on Escherichia coli 1507 E, 0.098 µg/mL (≈ 0.252 µM); in [9], 6.25 µg/mL (≈ 16.1 µM). Moreover, the MIC came to 3.12 µg/mL (≈ 8.03 µM) in assay [10]; 3.12 µg/mL (≈ 8.03 µM) in assay [11]; 0.781 µg/mL (≈ 2.01 µM) in [12]; 0.049 µg/mL (≈ 0.126 µM) against Salmonella typhimurium; 0.013 µg/mL (≈ 0.0334 µM) in assay [13]; 0.098 µg/mL (≈ 0.252 µM) in assay [14]. In addition, the MIC in [15] and in assay [16] was 0.049 µg/mL (≈ 0.126 µM) throughout.
As for `CNC1CC12CCN(c1cc3c(cc1F)c(=O)c(C(=O)O)cn3C1CC1)C2` (centres unmarked) [Example 11, 7-(1-methylamino-5-azaspiro[2,4]heptane-5-yl)-1-cyclopropyl-6-fluoro-1,4-dihydro-4-oxoquinoline-3-carboxylic acid], the MIC in assay [1] was 0.781 µg/mL (≈ 2.1 µM); in assay [2], 0.781 µg/mL (≈ 2.1 µM); in [3] it was 0.781 µg/mL (≈ 2.1 µM); in assay [4], 0.098 µg/mL (≈ 0.264 µM); in assay [5], 0.098 µg/mL (≈ 0.264 µM); in assay [6], 0.098 µg/mL (≈ 0.264 µM). In addition, the MIC in the assay on Escherichia coli DC 0 [7] turned out to be 0.049 µg/mL (≈ 0.132 µM); in the assay with Escherichia coli DC 0 [8] it was 1.56 µg/mL (≈ 4.21 µM); in the assay on Escherichia coli DC 2 it was 0.195 µg/mL (≈ 0.525 µM); against Escherichia coli OTEM, 0.098 µg/mL (≈ 0.264 µM); against Escherichia coli 1507 E it was 0.098 µg/mL (≈ 0.264 µM); in assay [9], 3.12 µg/mL (≈ 8.41 µM). In addition, the MIC in assay [10] turned out to be 3.12 µg/mL (≈ 8.41 µM); in assay [11], 3.12 µg/mL (≈ 8.41 µM); in [12] it was 0.781 µg/mL (≈ 2.1 µM); with Salmonella typhimurium it was 0.098 µg/mL (≈ 0.264 µM); in assay [13], 0.004 µg/mL (≈ 0.0108 µM); in [14], 0.098 µg/mL (≈ 0.264 µM). For the same compound, the figures for the MIC in [15] and in assay [16] were 0.098 µg/mL (≈ 0.264 µM) and 0.049 µg/mL (≈ 0.132 µM), respectively.
On to `CNC1CC12CCN(c1c(F)cc3c(=O)c(C(=O)O)cn4c3c1OC[C@@H]4C)C2` (stereo partly drawn) [Example 10, 9-fluoro-3-(S)-methyl-10-(1-methylamino-5-azaspiro[2,4]heptane-5-yl)-7-oxo-2,3-dihydro-7H-pyrido-[1,2,3-de]-1,4-benzoxazine-6-carboxylic acid], for which the MIC is 0.391 µg/mL (≈ 1.01 µM) in assay [1]; 0.195 µg/mL (≈ 0.503 µM) in assay [2]; 0.195 µg/mL (≈ 0.503 µM) in [3]; 0.049 µg/mL (≈ 0.126 µM) in [4]; 0.049 µg/mL (≈ 0.126 µM) in [5]; 0.049 µg/mL (≈ 0.126 µM) in assay [6]. The MIC in the assay on Escherichia coli DC 0 [7] came out at 0.025 µg/mL (≈ 0.0645 µM); against Escherichia coli DC 0 [8], 0.391 µg/mL (≈ 1.01 µM); in the assay with Escherichia coli DC 2, 0.049 µg/mL (≈ 0.126 µM); against Escherichia coli OTEM, 0.049 µg/mL (≈ 0.126 µM); in the assay on Escherichia coli 1507 E, 0.098 µg/mL (≈ 0.253 µM); in [9] it was 1.56 µg/mL (≈ 4.03 µM). In addition, the MIC in [10] came to 1.56 µg/mL (≈ 4.03 µM); in assay [11] it was 1.56 µg/mL (≈ 4.03 µM); in assay [12], 0.781 µg/mL (≈ 2.02 µM); with Salmonella typhimurium it was 0.049 µg/mL (≈ 0.126 µM); in [13] it was 0.007 µg/mL (≈ 0.0181 µM); in assay [14], 0.098 µg/mL (≈ 0.253 µM). In addition, the minimum inhibitory concentration (MIC) in [15] was 0.049 µg/mL (≈ 0.126 µM); in assay [16] it was 0.025 µg/mL (≈ 0.0645 µM).
For the compound `NC1CC12CCN(c1cc3c(cc1F)c(=O)c(C(=O)O)cn3C1CC1)C2` (centres unmarked) [Example 5, 7-(1-amino-5-azaspiro[2,4]heptane-5-yl)-1-cyclopropyl-6-fluoro-1,4-dihydro-4-oxoquinoline-3-carboxylic acid], the minimum inhibitory concentration (MIC) in assay [1] is 0.391 µg/mL (≈ 1.09 µM); in [2], 0.391 µg/mL (≈ 1.09 µM); in [3], 0.195 µg/mL (≈ 0.546 µM); in assay [4] it was 0.098 µg/mL (≈ 0.274 µM); in assay [5] it was 0.098 µg/mL (≈ 0.274 µM); in [6], 0.098 µg/mL (≈ 0.274 µM). Moreover, the minimum inhibitory concentration (MIC) stood at 0.025 µg/mL (≈ 0.07 µM) against Escherichia coli DC 0 [7]; 0.781 µg/mL (≈ 2.19 µM) in the assay with Escherichia coli DC 0 [8]; 0.098 µg/mL (≈ 0.274 µM) with Escherichia coli DC 2; 0.049 µg/mL (≈ 0.137 µM) in the assay on Escherichia coli OTEM; 0.098 µg/mL (≈ 0.274 µM) against Escherichia coli 1507 E; 1.56 µg/mL (≈ 4.37 µM) in assay [9]. Moreover, the MIC in [10] turned out to be 1.56 µg/mL (≈ 4.37 µM); in assay [11] it was 1.56 µg/mL (≈ 4.37 µM); in assay [12] it was 0.391 µg/mL (≈ 1.09 µM); in the assay with Salmonella typhimurium it was 0.049 µg/mL (≈ 0.137 µM); in assay [13], 0.004 µg/mL (≈ 0.0112 µM); in assay [14] it was 0.049 µg/mL (≈ 0.137 µM). Also, the MIC was determined as 0.049 µg/mL (≈ 0.137 µM) in assay [15] and 0.025 µg/mL (≈ 0.07 µM) in assay [16].

By MIC is commonly meant the smallest concentration in the dilution series that meets the test's criterion for growth inhibition.
